The record followed here is patent US20230406885A1, “CYCLIC PEPTIDES FOR TRAPPING INTERLEUKIN-1 BETA” (MERCK SHARP & DOHME LLC, priority 2022, published 2023).

*1 amine or outer side, *2 acyl side, *3 side chain or, on linkers, in order; H or OH if unused. Where a SMILES comes first, the peptide text is derived from it. [ ]: non-standard residue; d: D form. Phe(4-(trans-4-COOH-cHex)) = N[C@@H](Cc1ccc([C@H]2CC[C@H](C(=O)O)CC2)cc1)C(=O)O; Phe(4-(cis-4-COOH-cHex)) = N[C@@H](Cc1ccc([C@H]2CC[C@@H](C(=O)O)CC2)cc1)C(=O)O; Phe(4-(4-Ac-piperazinyl)) = CC(=O)N1CCN(c2ccc(C[C@H](N)C(=O)O)cc2)CC1; Bip(4'-COOH) = N[C@@H](Cc1ccc(-c2ccc(C(=O)O)cc2)cc1)C(=O)O; X6 = O=C(O)C12CC(c3ccc(C[C@H](N[*:1])C(=O)[*:2])cc3)(C1)C2; 1Nal(3S-Me) = C[C@@H](c1cccc2ccccc12)[C@H](N)C(=O)O; Ala(indazol-1-yl) = N[C@@H](Cn1ncc2ccccc21)C(=O)O; Ala(indolin-1-yl) = N[C@@H](CN1CCc2ccccc21)C(=O)O; Phe(4-COOH) = N[C@@H](Cc1ccc(C(=O)O)cc1)C(=O)O; Trp(6-F) = N[C@@H](Cc1c[nH]c2cc(F)ccc12)C(=O)O; dαMeDab = C[C@](CCN[*:3])(N[*:1])C(=O)[*:2]; Pro(4R-NH2) = N[C@H]1CN[C@H](C(=O)O)C1; hTyr = N[C@@H](CCc1ccc(O)cc1)C(=O)O; X9 = CCCC[C@](C)(N[*:1])C(=O)[*:2]; hCha = N[C@@H](CCC1CCCCC1)C(=O)O; 4Pal = N[C@@H](Cc1ccncc1)C(=O)O; Cha = N[C@@H](CC1CCCCC1)C(=O)O; dDab = NCC[C@@H](N)C(=O)O; Nle = CCCC[C@H](N)C(=O)O; dNMeA = CN[C@H](C)C(=O)O

T1 sequence (P01584 117-269): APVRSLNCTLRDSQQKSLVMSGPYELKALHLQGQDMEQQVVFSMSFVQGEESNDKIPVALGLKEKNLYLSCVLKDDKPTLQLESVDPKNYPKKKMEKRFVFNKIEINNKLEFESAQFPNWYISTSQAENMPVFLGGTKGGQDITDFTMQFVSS

This assay has as its target T1, Recombinant human IL-1β (Homo sapiens, UniProt P01584).
T1 construct: purchased BioLegend 579404
Briefly: IL-6 assay in MRC5 cells: inhibition of IL-1β induced IL-6 secretion (AlphaLISA). The note with it: inhibition of IL-1β induced IL-6 secretion in MRC5 cells; read-out: MRC5 IC50. Format: cell-based. The method in brief: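 IL-1β at 2×EC80 in seeding medium (EMEM, 0.025% BSA) preincubated 1 h at ambient temperature with compound, then 3000 MRC5 cells/well added and incubated overnight at 37 °C, 5% CO2. IL-6 in conditioned medium quantified by AlphaLISA; IC50 from 4-parameter logistic fit.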
Regarding `C[C@@H]1C(=O)NCC(=O)N[C@@H](Cc2ccc(-c3ccc(C(=O)O)cc3)cc2)C(=O)N[C@@H](Cn2ncc3ccccc32)C(=O)NCC(=O)N[C@H](CCN)C(=O)N[C@@H](CCC2CCCCC2)C(=O)N[C@@H](Cc2ccc(C34CC(C(=O)O)(C3)C4)cc2)C(=O)N[C@@H](Cc2c[nH]c3ccccc23)C(=O)N[C@@H](Cc2ccc(C(=O)O)cc2)C(=O)NCC(=O)N2C[C@H](N)C[C@H]2C(=O)N[C@@H]([C@@H](C)c2cccc3ccccc23)C(=O)N[C@@H](CC(=O)O)C(=O)N1C` [Example 188] (cyclo([X6]W[Phe(4-COOH)]G[Pro(4R-NH2)][1Nal(3S-Me)]D[dNMeA]G[Bip(4'-COOH)][Ala(indazol-1-yl)]G[dDab][hCha])), the IC50 turned out to be 0.016 nM.

Consider `C[C@@H]1C(=O)NCC(=O)N[C@@H](Cc2ccc(-c3ccc(C(=O)O)cc3)cc2)C(=O)N[C@@H](CC2CCCCC2)C(=O)NCC(=O)N[C@H](CCN)C(=O)N[C@@H](CCC2CCCCC2)C(=O)N[C@@H](Cc2ccc(C34CC(C(=O)O)(C3)C4)cc2)C(=O)N[C@@H](Cc2c[nH]c3ccccc23)C(=O)N[C@@H](Cc2ccc(C(=O)O)cc2)C(=O)NCC(=O)N2C[C@H](N)C[C@H]2C(=O)N[C@@H]([C@@H](C)c2cccc3ccccc23)C(=O)N[C@@H](CC(=O)O)C(=O)N1C` [Example 189] (cyclo([X6]W[Phe(4-COOH)]G[Pro(4R-NH2)][1Nal(3S-Me)]D[dNMeA]G[Bip(4'-COOH)][Cha]G[dDab][hCha])), for which the half-inhibitory concentration (IC50) was 0.019 nM. With `C[C@@H]1C(=O)NCC(=O)N[C@@H](Cc2ccc(-c3ccc(C(=O)O)cc3)cc2)C(=O)N[C@@H](CC2CCCCC2)C(=O)NCC(=O)N[C@H](CCN)C(=O)N[C@@H](CCc2ccc(O)cc2)C(=O)N[C@@H](Cc2ccc(C34CC(C(=O)O)(C3)C4)cc2)C(=O)N[C@@H](Cc2c[nH]c3ccccc23)C(=O)N[C@@H](Cc2ccc(C(=O)O)cc2)C(=O)NCC(=O)N2C[C@H](N)C[C@H]2C(=O)N[C@@H]([C@@H](C)c2cccc3ccccc23)C(=O)N[C@@H](CC(=O)O)C(=O)N1C` [Example 190] (cyclo([X6]W[Phe(4-COOH)]G[Pro(4R-NH2)][1Nal(3S-Me)]D[dNMeA]G[Bip(4'-COOH)][Cha]G[dDab][hTyr])) the figure was 0.018 nM; with `C[C@@H]1C(=O)NCC(=O)N[C@@H](Cc2ccc(-c3ccc(C(=O)O)cc3)cc2)C(=O)N[C@@H](Cc2ccncc2)C(=O)NCC(=O)N[C@H](CCN)C(=O)N[C@@H](CCC2CCCCC2)C(=O)N[C@@H](Cc2ccc([C@H]3CC[C@@H](C(=O)O)CC3)cc2)C(=O)N[C@@H](Cc2c[nH]c3ccccc23)C(=O)N[C@@H](Cc2ccc(C(=O)O)cc2)C(=O)NCC(=O)N2C[C@H](N)C[C@H]2C(=O)N[C@@H]([C@@H](C)c2cccc3ccccc23)C(=O)N[C@@H](CC(=O)O)C(=O)N1C` [Example 191] (cyclo([Phe(4-(cis-4-COOH-cHex))]W[Phe(4-COOH)]G[Pro(4R-NH2)][1Nal(3S-Me)]D[dNMeA]G[Bip(4'-COOH)][4Pal]G[dDab][hCha])), 0.019 nM.

In the case of `C[C@@H]1C(=O)NCC(=O)N[C@@H](Cc2ccc(-c3ccc(C(=O)O)cc3)cc2)C(=O)N[C@@H](Cc2ccncc2)C(=O)NCC(=O)N[C@H](CCN)C(=O)N[C@@H](CCC2CCCCC2)C(=O)N[C@@H](Cc2ccc([C@H]3CC[C@H](C(=O)O)CC3)cc2)C(=O)N[C@@H](Cc2c[nH]c3cc(F)ccc23)C(=O)N[C@@H](Cc2ccc(C(=O)O)cc2)C(=O)NCC(=O)N2C[C@H](N)C[C@H]2C(=O)N[C@@H]([C@@H](C)c2cccc3ccccc23)C(=O)N[C@@H](CC(=O)O)C(=O)N1C` [Example 192] (cyclo([Phe(4-(trans-4-COOH-cHex))][Trp(6-F)][Phe(4-COOH)]G[Pro(4R-NH2)][1Nal(3S-Me)]D[dNMeA]G[Bip(4'-COOH)][4Pal]G[dDab][hCha])), the IC50 turned out to be 0.015 nM. In the case of `C[C@@H]1C(=O)NCC(=O)N[C@@H](Cc2ccc(-c3ccc(C(=O)O)cc3)cc2)C(=O)N[C@@H](Cc2ccncc2)C(=O)N[C@@H](CO)C(=O)N[C@H](CCN)C(=O)N[C@@H](CCC2CCCCC2)C(=O)N[C@@H](Cc2ccc([C@H]3CC[C@H](C(=O)O)CC3)cc2)C(=O)N[C@@H](Cc2c[nH]c3cc(F)ccc23)C(=O)N[C@@H](Cc2ccc(C(=O)O)cc2)C(=O)NCC(=O)N2C[C@H](N)C[C@H]2C(=O)N[C@@H]([C@@H](C)c2cccc3ccccc23)C(=O)N[C@@H](CC(=O)O)C(=O)N1C` [Example 193] (cyclo([Phe(4-(trans-4-COOH-cHex))][Trp(6-F)][Phe(4-COOH)]G[Pro(4R-NH2)][1Nal(3S-Me)]D[dNMeA]G[Bip(4'-COOH)][4Pal]S[dDab][hCha])), the half-inhibitory concentration (IC50) stood at 0.012 nM. As to `C[C@@H]1C(=O)NCC(=O)N[C@@H](Cc2ccc(-c3ccc(C(=O)O)cc3)cc2)C(=O)N[C@@H](Cc2ccncc2)C(=O)NCC(=O)N[C@H](CCN)C(=O)N[C@@H](CCC2CCCCC2)C(=O)N[C@@H](Cc2ccc([C@H]3CC[C@H](C(=O)O)CC3)cc2)C(=O)N[C@@H](Cc2c[nH]c3ccccc23)C(=O)N[C@@H](Cc2ccc(C(=O)O)cc2)C(=O)NCC(=O)N2C[C@H](N)C[C@H]2C(=O)N[C@@H]([C@@H](C)c2cccc3ccccc23)C(=O)N[C@@H](CC(=O)O)C(=O)N1C` [Example 196] (cyclo([Phe(4-(trans-4-COOH-cHex))]W[Phe(4-COOH)]G[Pro(4R-NH2)][1Nal(3S-Me)]D[dNMeA]G[Bip(4'-COOH)][4Pal]G[dDab][hCha])), the 50% inhibitory concentration (IC50) stood at 0.03 nM. With `CCCC[C@@H]1NC(=O)[C@@H](CCN)NC(=O)CNC(=O)[C@H](Cc2ccncc2)NC(=O)[C@H](Cc2ccc(-c3ccc(C(=O)O)cc3)cc2)NC(=O)CNC(=O)[C@@H](C)N(C)C(=O)[C@H](CC(=O)O)NC(=O)[C@H]([C@@H](C)c2cccc3ccccc23)NC(=O)[C@@H]2C[C@@H](N)CN2C(=O)CNC(=O)[C@H](Cc2ccc(C(=O)O)cc2)NC(=O)[C@H](Cc2c[nH]c3ccccc23)NC(=O)[C@H](Cc2ccc([C@H]3CC[C@H](C(=O)O)CC3)cc2)NC1=O` [Example 197] (cyclo([Phe(4-(trans-4-COOH-cHex))]W[Phe(4-COOH)]G[Pro(4R-NH2)][1Nal(3S-Me)]D[dNMeA]G[Bip(4'-COOH)][4Pal]G[dDab][Nle])) the figure was 0.024 nM. With `CC(=O)N1CCN(c2ccc(C[C@@H]3NC(=O)[C@H](CCc4ccc(O)cc4)NC(=O)[C@@H](CCN)NC(=O)CNC(=O)[C@H](CN4CCc5ccccc54)NC(=O)[C@H](Cc4ccc(-c5ccc(C(=O)O)cc5)cc4)NC(=O)CNC(=O)[C@@H](C)N(C)C(=O)[C@H](CC(=O)O)NC(=O)[C@H]([C@@H](C)c4cccc5ccccc45)NC(=O)[C@@H]4C[C@@H](N)CN4C(=O)CNC(=O)[C@H](Cc4ccc(C(=O)O)cc4)NC(=O)[C@H](Cc4c[nH]c5ccccc45)NC3=O)cc2)CC1` [Example 198] (cyclo([Phe(4-(4-Ac-piperazinyl))]W[Phe(4-COOH)]G[Pro(4R-NH2)][1Nal(3S-Me)]D[dNMeA]G[Bip(4'-COOH)][Ala(indolin-1-yl)]G[dDab][hTyr])) the figure was 0.021 nM. Regarding `CC(=O)N1CCN(c2ccc(C[C@@H]3NC(=O)[C@H](CCC4CCCCC4)NC(=O)[C@@](C)(CCN)NC(=O)CNC(=O)[C@H](Cc4ccncc4)NC(=O)[C@H](Cc4ccc(-c5ccc(C(=O)O)cc5)cc4)NC(=O)CNC(=O)[C@@H](C)N(C)C(=O)[C@H](CC(=O)O)NC(=O)[C@H]([C@@H](C)c4cccc5ccccc45)NC(=O)[C@@H]4C[C@@H](N)CN4C(=O)CNC(=O)[C@H](Cc4ccc(C(=O)O)cc4)NC(=O)[C@H](Cc4c[nH]c5ccccc45)NC3=O)cc2)CC1` [Example 199] (cyclo([Phe(4-(4-Ac-piperazinyl))]W[Phe(4-COOH)]G[Pro(4R-NH2)][1Nal(3S-Me)]D[dNMeA]G[Bip(4'-COOH)][4Pal]G[dαMeDab][hCha])), the IC50 worked out at 0.024 nM. Regarding `CCCC[C@]1(C)NC(=O)[C@@H](CCN)NC(=O)CNC(=O)[C@H](Cc2ccncc2)NC(=O)[C@H](Cc2ccc(-c3ccc(C(=O)O)cc3)cc2)NC(=O)CNC(=O)[C@@H](C)N(C)C(=O)[C@H](CC(=O)O)NC(=O)[C@H]([C@@H](C)c2cccc3ccccc23)NC(=O)[C@@H]2C[C@@H](N)CN2C(=O)CNC(=O)[C@H](Cc2ccc(C(=O)O)cc2)NC(=O)[C@H](Cc2c[nH]c3ccccc23)NC(=O)[C@H](Cc2ccc(N3CCN(C(C)=O)CC3)cc2)NC1=O` [Example 200] (cyclo([Phe(4-(4-Ac-piperazinyl))]W[Phe(4-COOH)]G[Pro(4R-NH2)][1Nal(3S-Me)]D[dNMeA]G[Bip(4'-COOH)][4Pal]G[dDab][X9])), the half-maximal inhibitory concentration (IC50) was 0.034 nM. Regarding `CC(=O)N1CCN(c2ccc(C[C@@H]3NC(=O)[C@H](CCC4CCCCC4)NC(=O)[C@@H](CCN)NC(=O)CNC(=O)[C@H](Cc4ccncc4)NC(=O)[C@H](Cc4ccc(-c5ccc(C(=O)O)cc5)cc4)NC(=O)CNC(=O)[C@@H](C)N(C)C(=O)[C@H](CC(=O)O)NC(=O)[C@H]([C@@H](C)c4cccc5ccccc45)NC(=O)[C@@H]4C[C@@H](N)CN4C(=O)CNC(=O)[C@H](Cc4ccc(C(=O)O)cc4)NC(=O)[C@H](Cc4c[nH]c5ccccc45)NC3=O)cc2)CC1` [Example 201] (cyclo([Phe(4-(4-Ac-piperazinyl))]W[Phe(4-COOH)]G[Pro(4R-NH2)][1Nal(3S-Me)]D[dNMeA]G[Bip(4'-COOH)][4Pal]G[dDab][hCha])), the half-maximal inhibitory concentration (IC50) was found to be 0.03 nM. With `CC(=O)N1CCN(c2ccc(C[C@@H]3NC(=O)[C@H](CCc4ccc(O)cc4)NC(=O)[C@@H](CCN)NC(=O)CNC(=O)[C@H](CC4CCCCC4)NC(=O)[C@H](Cc4ccc(-c5ccc(C(=O)O)cc5)cc4)NC(=O)CNC(=O)[C@@H](C)N(C)C(=O)[C@H](CC(=O)O)NC(=O)[C@H]([C@@H](C)c4cccc5ccccc45)NC(=O)[C@@H]4C[C@@H](N)CN4C(=O)CNC(=O)[C@H](Cc4ccc(C(=O)O)cc4)NC(=O)[C@H](Cc4c[nH]c5ccccc45)NC3=O)cc2)CC1` [Example 202] (cyclo([Phe(4-(4-Ac-piperazinyl))]W[Phe(4-COOH)]G[Pro(4R-NH2)][1Nal(3S-Me)]D[dNMeA]G[Bip(4'-COOH)][Cha]G[dDab][hTyr])) the figure was 0.029 nM.
